Patent publication US4742045A, “Glycopeptide antibiotics” (SmithKline Beckman Corporation, priority 1986, dated 1988)
≈ marks a conversion by molar mass, not a printed value. Read-outs that look alike come from different tables or passages of the source.

Key:
STAPH. AUREUS HH 127 = assay: prophylactic activity, dosing preinfection; type: in vivo, mice; conditions: for ED50: Staphylococcus aureus, in Mus musculus
S. faecalis = assay: mice infected intraperitoneally, dosed 1 hr after infection, ED50; type: in vivo; conditions: Enterococcus faecalis, 1 h
Procedure: (§1) The in vivo activity of the CWI-785 complex and its components and hydrolysis products was confirmed by administering selected CWI-785 antibiotics to mice infected with various gram-positive pathogens. In one representative assay, in which mice infected intraperitoneally with 46.8 LD50 's of S. aureus (strain 1, Tables 1 and 2) were dosed once, subcutaneously one hour after infection, the following ED50 's (mg/kg) were observed: CWI-785B: 2.4, CWI-785C: 3.1, CWI-785: 3.8, HPB3: 0.9, vancomycin: 0.7. In a second representative assay carried out as above except that mice were infected with 3.17 LD50 's of S. faecalis (strain 9, Table 2), the following ED50 's were observed: HPB3 hydrochloride: 1.6, HPB4 hydrochloride: 1.6, vancomycin: 2.2, teicoplanin: 1.3.
(§2) In Table 6, below, is shown the ED50 in mg/kg of HPB4 in comparison to vancomycin and teicoplanin. Mice were injected i.p. with the indicated organism and then i.v., 1 hr post infection, with the indicated antibiotic.

S. aureus = assay: as above; type: in vivo; conditions: Staphylococcus aureus, 1 h, antibiotic i.v. 1 hr post infection
Procedure: as §1, §2

[1] = tested on: Staphylococcus haemolyticus; assay: standard microtiter assay, minimum inhibitory concentration; type: cell-based; conditions: Staphylococcus haemolyticus
How it was run: (§3)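 Broth microtiter MIC (μg/ml) of CWI-785 antibiotic, as complex, individual components or HCl salts, against several staphylococcal strains. Some assays run without serum or in 50% human or 50% mouse serum.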

[2] = tested on: Staphylococcus saprophyticus; assay: as above; type: cell-based; conditions: Staphylococcus saprophyticus
How it was run: as §3

Streptococcus faecalis = assay: as above; type: cell-based
How it was run: (§4)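 Standard microtiter broth assays, with MIC reported in μg/ml and averaged over several strains per species. The CWI-785 complex was tested, in some cases as HCl salts. Some runs used no serum, 50% human serum or 50% mouse serum.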

Staphylococcus aureus = assay: as above; type: cell-based
How it was run: as §4

Group B Strep. = assay: MIC against an expanded panel; type: cell-based; conditions: Table 4, Group B Strep. (4 strains)
Text: (§5) The number of strains tested is shown in parentheses below each organism. The average MIC is reported in μg/ml.

Group A Strep. = assay: MIC against an expanded panel; type: cell-based; conditions: Table 4, Group A Strep. (6 strains)
Text: as §5

JK Diptheroids = assay: MIC against an expanded panel; type: cell-based; conditions: Table 4, JK Diptheroids (19 strains)
Text: as §5

Viridans = assay: MIC against an expanded panel; type: cell-based; conditions: Table 4, Viridans (2 strains)
Text: as §5

Coag-neg. Staphylococci = assay: MIC against an expanded panel; type: cell-based; conditions: Table 4, Coag-neg. Staphylococci (24 strains)
Text: as §5

Streptococcus pyogenes = assay: standard microtiter assay, minimum inhibitory concentration; type: cell-based; conditions: Streptococcus pyogenes, read-out: minimum inhibitory concentration
Text: Representative results of standard microtiter assays are reported in Tables 1, 2 and 3 which follow, as the minimum inhibitory concentration of antibiotic (μg/ml).
In Table 1, test organisms 1-13 were different strains of Staphylococcus aureus, and 14-16 were different strains of Staphylococcus epidermidis. In Table 2, test organisms 1-5 were different strains of S. aureus; 6, 8, 12 and 14 were different strains of S. epidermidis; 7 was a Staphylococcus haemolyticus; 9 and 10 were different strains of Streptococcus faecalis; 11 was a Streptococcus pyogenes; and 13 was a Staphylococcus saprophyticus. In Table 3, test organisms 1-3 were different strains of S. aureus; 4 and 6 were different strains of S. epidermidis; 5 was a S. haemolyticus and 7 and 8 were different strains of Streptococcus faecalis. Except where individual components are indicated, the CWI-785 antibiotic employed was the CWI-785 complex; in some cases, HCl salts of the CWI-785 antibiotic were employed.

S. epidermidis = assay: mice infected i.p., antibiotic i.v. 1 hr post infection, ED50; type: in vivo; conditions: Staphylococcus epidermidis, 1 h
Procedure: as §2

S. haemolyticus = assay: as above; type: in vivo; conditions: Staphylococcus haemolyticus, 1 h
Procedure: as §2

With `CN[C@H](CC(C)C)C(=O)N[C@H]1C(=O)N[C@@H](CC(N)=O)C(=O)N[C@H]2C(=O)N[C@H]3C(=O)N[C@H](C(=O)N[C@H](C(=O)O)c4cc(O)cc(O)c4-c4cc3ccc4O)[C@H](O)c3ccc(c(Cl)c3)Oc3cc2cc(c3O[C@@H]2O[C@H](CO)[C@@H](O)[C@H](O)[C@H]2O[C@H]2C[C@](C)(N)[C@H](O)[C@H](C)O2)Oc2ccc(cc2Cl)[C@H]1O` [Vancomycin, vancomycin] the ED50 (STAPH. AUREUS HH 127; iv) was 0.156 mg/kg, the ED50 (STAPH. AUREUS HH 127; sc) was 0.31 mg/kg and the “PERCENT SURVIVAL” value (STAPH. AUREUS HH 127; Table 7: 40 mg/kg, 4 hr preinfection, S.C.) was 20%. For the same compound, the “PERCENT SURVIVAL” value (STAPH. AUREUS HH 127; Table 8: 40 mg/kg (I.V.), 6 hr preinfection) was 10%, the ED50 (S. faecalis) was 1.3 mg/kg and the ED50 (S. aureus; S. aureus 2620 (24 × LD50) i.p.) was 1.4 mg/kg. It also gave an ED50 (S. aureus; S. aureus HH 127 (35 × LD50) i.p.) of 0.4 mg/kg, an MIC ([1]; Table 5 organism 3 S. haemolyticus, 50% Hum. Serum) of 3.1 µg/mL (≈ 2.14 µM) and an MIC ([1]; Table 5 organism 3 S. haemolyticus, 50% Mse. Serum) of 6.3 µg/mL (≈ 4.35 µM). It also gave an MIC ([1]; Table 5 organism 3 S. haemolyticus, No Serum) of 3.1 µg/mL (≈ 2.14 µM), an MIC ([1]; read-out: minimum inhibitory concentration, Table 2 test organism 7, Staphylococcus haemolyticus) of 3.1 µg/mL (≈ 2.14 µM) and an MIC ([2]; Table 5 organism 6 S. saprophyticus, 50% Hum. Serum) of 3.1 µg/mL (≈ 2.14 µM). The MIC ([2]; Table 5 organism 6 S. saprophyticus, 50% Mse. Serum) was 6.3 µg/mL (≈ 4.35 µM), the MIC ([2]; Table 5 organism 6 S. saprophyticus, No Serum) was 1.6 µg/mL (≈ 1.1 µM) and the MIC ([2]; read-out: minimum inhibitory concentration, Table 2 test organism 13, Staphylococcus saprophyticus) was 1.6 µg/mL (≈ 1.1 µM). It also gave an MIC50 (Streptococcus faecalis; Enterococcus faecalis) of 0.4 µg/mL (≈ 0.276 µM), an MIC (Streptococcus faecalis; Enterococcus faecalis, Table 5 organism 7 S. faecalis, 50% Hum. Serum) of 3.1 µg/mL (≈ 2.14 µM) and an MIC (Streptococcus faecalis; Enterococcus faecalis, Table 5 organism 7 S. faecalis, 50% Mse. Serum) of 6.3 µg/mL (≈ 4.35 µM). The MIC (Streptococcus faecalis; Enterococcus faecalis, Table 5 organism 7 S. faecalis, No Serum) was 1.6 µg/mL (≈ 1.1 µM), the MIC (Streptococcus faecalis; Enterococcus faecalis, Table 5 organism 8 S. faecalis, 50% Hum. Serum) was 3.1 µg/mL (≈ 2.14 µM) and the MIC (Streptococcus faecalis; Enterococcus faecalis, Table 5 organism 8 S. faecalis, 50% Mse. Serum) was 6.3 µg/mL (≈ 4.35 µM). It also gave an MIC (Streptococcus faecalis; Enterococcus faecalis, Table 5 organism 8 S. faecalis, No Serum) of 1.6 µg/mL (≈ 1.1 µM), an MBC (Streptococcus faecalis; Enterococcus faecalis, read-out: MBC50) of 50 µg/mL (≈ 34.5 µM) and an MIC (Streptococcus faecalis; Enterococcus faecalis, read-out: minimum inhibitory concentration, Table 2 test organism 9, Streptococcus faecalis strain) of 1.6 µg/mL (≈ 1.1 µM). The MIC (Streptococcus faecalis; Enterococcus faecalis, read-out: minimum inhibitory concentration, Table 2 test organism 10, Streptococcus faecalis strain) was 1.6 µg/mL (≈ 1.1 µM), the “MIC RANGE” value (Streptococcus faecalis; Table 4, Strep. faecalis (12 strains)) was 0.4 to 0.8 µg/mL and the MIC50 (Staphylococcus aureus; Staphylococcus aureus) was 1.6 µg/mL (≈ 1.1 µM). For the same compound, the MIC (Staphylococcus aureus; Staphylococcus aureus, Table 5 organism 1 S. aureus, 50% Hum. Serum) was 3.1 µg/mL (≈ 2.14 µM), the MIC (Staphylococcus aureus; Staphylococcus aureus, Table 5 organism 1 S. aureus, 50% Mse. Serum) was 1.6 µg/mL (≈ 1.1 µM) and the MIC (Staphylococcus aureus; Staphylococcus aureus, Table 5 organism 1 S. aureus, No Serum) was 1.6 µg/mL (≈ 1.1 µM). For the same compound, the MIC (Staphylococcus aureus; Staphylococcus aureus, read-out: minimum inhibitory concentration, Table 1 test organism 1, S. aureus strain) was 1.6 µg/mL (≈ 1.1 µM), the MIC (Staphylococcus aureus; Staphylococcus aureus, read-out: minimum inhibitory concentration, Table 1 test organism 2, S. aureus strain) was 1.6 µg/mL (≈ 1.1 µM) and the MIC (Staphylococcus aureus; Staphylococcus aureus, read-out: minimum inhibitory concentration, Table 1 test organism 3, S. aureus strain) was 1.6 µg/mL (≈ 1.1 µM). It also gave an MIC (Staphylococcus aureus; Staphylococcus aureus, read-out: minimum inhibitory concentration, Table 1 test organism 4, S. aureus strain) of 1.6 µg/mL (≈ 1.1 µM), an MIC (Staphylococcus aureus; Staphylococcus aureus, read-out: minimum inhibitory concentration, Table 1 test organism 5, S. aureus strain) of 1.6 µg/mL (≈ 1.1 µM) and an MIC (Staphylococcus aureus; Staphylococcus aureus, read-out: minimum inhibitory concentration, Table 1 test organism 6, S. aureus strain) of 1.6 µg/mL (≈ 1.1 µM). It also gave an MIC (Staphylococcus aureus; Staphylococcus aureus, read-out: minimum inhibitory concentration, Table 1 test organism 7, S. aureus strain) of 3.1 µg/mL (≈ 2.14 µM), an MIC (Staphylococcus aureus; Staphylococcus aureus, read-out: minimum inhibitory concentration, Table 1 test organism 8, S. aureus strain) of 1.6 µg/mL (≈ 1.1 µM) and an MIC (Staphylococcus aureus; Staphylococcus aureus, read-out: minimum inhibitory concentration, Table 1 test organism 9, S. aureus strain) of 1.6 µg/mL (≈ 1.1 µM). For the same compound, the MIC (Staphylococcus aureus; Staphylococcus aureus, read-out: minimum inhibitory concentration, Table 1 test organism 10, S. aureus strain) was 1.6 µg/mL (≈ 1.1 µM), the MIC (Staphylococcus aureus; Staphylococcus aureus, read-out: minimum inhibitory concentration, Table 1 test organism 11, S. aureus strain) was 1.6 µg/mL (≈ 1.1 µM) and the MIC (Staphylococcus aureus; Staphylococcus aureus, read-out: minimum inhibitory concentration, Table 1 test organism 12, S. aureus strain) was 1.6 µg/mL (≈ 1.1 µM). The MIC (Staphylococcus aureus; Staphylococcus aureus, read-out: minimum inhibitory concentration, Table 1 test organism 13, S. aureus strain) was 0.8 µg/mL (≈ 0.552 µM), the MIC (Staphylococcus aureus; Staphylococcus aureus, read-out: minimum inhibitory concentration, Table 2 test organism 1, S. aureus strain) was 1.6 µg/mL (≈ 1.1 µM) and the MIC (Staphylococcus aureus; Staphylococcus aureus, read-out: minimum inhibitory concentration, Table 2 test organism 2, S. aureus strain) was 1.6 µg/mL (≈ 1.1 µM). For the same compound, the MIC (Staphylococcus aureus; Staphylococcus aureus, read-out: minimum inhibitory concentration, Table 2 test organism 3, S. aureus strain) was 1.6 µg/mL (≈ 1.1 µM), the MIC (Staphylococcus aureus; Staphylococcus aureus, read-out: minimum inhibitory concentration, Table 2 test organism 4, S. aureus strain) was 1.6 µg/mL (≈ 1.1 µM) and the MIC (Staphylococcus aureus; Staphylococcus aureus, read-out: minimum inhibitory concentration, Table 2 test organism 5, S. aureus strain) was 1.6 µg/mL (≈ 1.1 µM). For the same compound, the “MIC RANGE” value (Staphylococcus aureus; Table 4, S. aureus (30 strains)) was 1.6 to 6.3 µg/mL, the “MIC RANGE” value (Group B Strep.) was 0.4 to 0.8 µg/mL and the “MIC RANGE” value (Group A Strep.) was 0.04 to 0.8 µg/mL. For the same compound, the MIC50 (Group A Strep.; read-out: MIC50) was 0.4 µg/mL (≈ 0.276 µM), the “MIC RANGE” value (JK Diptheroids) was 0.8 to 1.6 µg/mL and the MIC50 (JK Diptheroids; read-out: MIC50) was 1.6 µg/mL (≈ 1.1 µM). For the same compound, the “MIC RANGE” value (Viridans) was 0.05 to 0.8 µg/mL, the “MIC RANGE” value (Coag-neg. Staphylococci) was 0.4 to 6.3 µg/mL and the MIC50 (Coag-neg. Staphylococci; read-out: MIC50) was 3.1 µg/mL (≈ 2.14 µM). For the same compound, the MIC (Streptococcus pyogenes) was 0.8 µg/mL (≈ 0.552 µM), the ED50 (S. epidermidis) was under 1.25 mg/kg and the ED50 (S. haemolyticus) was 10 mg/kg.
